Data: the supplement of paper PMC13380429

Experiments:
Conditions in all cases: 72 h
Caco-2 [1] = assay: cell viability relative to DMSO; higher = less toxic
Calu-3 [2] = assay: as above
HepG2 [3] = assay: as above
U2OS [4] = assay: as above
Vero E6 [5] = assay: as above
Caco-2 [6] = assay: relative viability EC50 (midpoint between 100% and the lowest measured viability); higher = less toxic
Calu-3 [7] = assay: as above
HepG2 [8] = assay: as above
U2OS [9] = assay: as above
Vero E6 [10] = assay: as above
Caco-2 [11] = assay: drug sensitivity score (DSS) for viability; higher = more toxic; extreme values may be limits of the assay
Calu-3 [12] = assay: as above
HepG2 [13] = assay: as above
U2OS [14] = assay: as above
Vero E6 [15] = assay: as above

Compound | cell viability (Caco-2 [1]; 1 nM) [%] | cell viability (Caco-2 [1]; 10 nM) [%] | cell viability (Caco-2 [1]; 100 nM) [%] | cell viability (Caco-2 [1]; 1000 nM) [%] | cell viability (Caco-2 [1]; 10000 nM) [%] | cell viability (Calu-3 [2]; 1 nM) [%] | cell viability (Calu-3 [2]; 10 nM) [%] | cell viability (Calu-3 [2]; 100 nM) [%] | cell viability (Calu-3 [2]; 1000 nM) [%] | cell viability (Calu-3 [2]; 10000 nM) [%] | cell viability (HepG2 [3]; 1 nM) [%] | cell viability (HepG2 [3]; 10 nM) [%] | cell viability (HepG2 [3]; 100 nM) [%] | cell viability (HepG2 [3]; 1000 nM) [%] | cell viability (HepG2 [3]; 10000 nM) [%] | cell viability (U2OS [4]; 1 nM) [%] | cell viability (U2OS [4]; 10 nM) [%] | cell viability (U2OS [4]; 100 nM) [%] | cell viability (U2OS [4]; 1000 nM) [%] | cell viability (U2OS [4]; 10000 nM) [%] | cell viability (Vero E6 [5]; 1 nM) [%] | cell viability (Vero E6 [5]; 10 nM) [%] | cell viability (Vero E6 [5]; 100 nM) [%] | cell viability (Vero E6 [5]; 1000 nM) [%] | cell viability (Vero E6 [5]; 10000 nM) [%] | relative viability EC50 (Caco-2 [6]) [µM] | relative viability EC50 (Calu-3 [7]) [µM] | relative viability EC50 (HepG2 [8]) [µM] | relative viability EC50 (U2OS [9]) [µM] | relative viability EC50 (Vero E6 [10]) [µM] | drug sensitivity score (Caco-2 [11]) | drug sensitivity score (Calu-3 [12]) | drug sensitivity score (HepG2 [13]) | drug sensitivity score (U2OS [14]) | drug sensitivity score (Vero E6 [15])
C/C(O)=C(\C#N)C(=O)Nc1cc(Br)ccc1Br [LFM-A13] | 99.6 | 99.5 | 90.1 | 100 | 92.1 | 92.8 | 99.6 | 103 | 100 | 94.7 | 105 | 99.7 | 99.5 | 99 | 101 | 102 | 103 | 97.3 | 104 | 96.4 | 112 | 80.5 | 99 | 96.3 | 105 | > 10 | > 10 | > 10 | > 10 | > 10 | 0 | 0 | 0 | 0 | 0
O=C(NCCN1CCCCC1)c1ccc(I)cc1 [N-[2-(piperidinylamino)ethyl]-4-iodobenzamide] | 96.4 | 99.6 | 105 | 92.1 | 91.2 | 101 | 89.4 | 94.6 | 92.7 | 116 | 103 | 91.8 | 103 | 99.1 | 91.3 | 103 | 97.5 | 97 | 91.3 | 95.5 | 101 | 99.6 | 96.5 | 99.3 | 93.4 | > 10 | > 10 | > 10 | > 10 | > 10 | 0 | 0 | 0 | 0 | 0
O=C(NCc1ccc(OC(F)(F)F)cc1)C1c2ccccc2C(=O)N1C1CCOCC1 (stereo not given) [NAV-26] | 100 | 90.6 | 105 | 96.8 | 99.2 | 103 | 97.6 | 93.8 | 99.5 | 100 | 107 | 91.6 | 96.7 | 112 | 112 | 99.3 | 94.5 | 99 | 95.9 | 91 | 95.7 | 101 | 88.7 | 98.9 | 107 | > 10 | > 10 | > 10 | > 10 | > 10 | 0 | 0 | 0 | 0 | 0
CCCN(CCC)CCc1ccc(OC)c(OCCc2ccccc2)c1 [NE-100] | 105 | 102 | 89.8 | 92.9 | 91.3 | 95.1 | 93.5 | 85.9 | 107 | 105 | 101 | 98.5 | 98.6 | 99.3 | 93 | 105 | 100 | 104 | 101 | 97.9 | 107 | 106 | 99.3 | 103 | 94.8 | > 10 | > 10 | > 10 | > 10 | > 10 | 0.1 | 0 | 0 | 0 | 0
Cc1c(-c2ccccc2F)[nH]c(N)c1C#N [NS-8] | 96.9 | 90.1 | 105 | 97.5 | 105 | 104 | 101 | 83.6 | 103 | 99.2 | 93.1 | 98.3 | 90.7 | 96.9 | 116 | 98.1 | 95.9 | 99.8 | 93.9 | 103 | 95.2 | 99.1 | 96.2 | 97.7 | 109 | > 10 | > 10 | > 10 | > 10 | > 10 | 0 | 0 | 0 | 0 | 0
C[C@H](Nc1cc(-c2cnn(C)c2)cc(Nc2cnccn2)n1)c1ccc(F)cc1 [NS-018] | 99.1 | 102 | 104 | 83.6 | 32 | 96.4 | 89.1 | 91.9 | 62.7 | 42 | 101 | 102 | 102 | 75.6 | 3.1 | 97.6 | 95.1 | 100 | 87.6 | 26.4 | 106 | 100 | 99.7 | 83.4 | 14.5 | 1.58 | 0.517 | 1.54 | 1.88 | 1.76 | 6.3 | 8.1 | 9.1 | 6.1 | 7.4
O=C(Nc1cc(C(F)(F)F)ccc1O)Nc1cc(C(F)(F)F)ccc1O [NS-1643] | 108 | 101 | 102 | 95 | 88.3 | 102 | 94.7 | 103 | 97.4 | 104 | 95.3 | 105 | 110 | 94.7 | 92.5 | 99.3 | 100 | 104 | 102 | 96.9 | 98.8 | 103 | 100 | 99.1 | 95.1 | > 10 | > 10 | > 10 | > 10 | > 10 | 0.2 | 0 | 0 | 0 | 0
O=C(Nc1cccc(C(F)(F)F)c1)Nc1ccc(Br)cc1-c1nnn[nH]1 [NS-3623] | 98 | 99.8 | 100 | 97.8 | 101 | 107 | 92.8 | 95.3 | 102 | 100 | 102 | 102 | 92.5 | 98.7 | 112 | 99.6 | 97.8 | 97.6 | 99.2 | 96.2 | 93.3 | 101 | 92.4 | 94.6 | 110 | > 10 | > 10 | > 10 | > 10 | > 10 | 0 | 0 | 0 | 0 | 0
CCNC(=O)c1noc(-c2cc(C(C)C)c(O)cc2O)c1-c1ccc(CN2CCOCC2)cc1 [NVP-AUY922] | 100 | 77.1 | 30.3 | 28.2 | 31.4 | 84.2 | 83.9 | 46 | 37.3 | 29.6 | 103 | 27.5 | 1.2 | 0.8 | 1.2 | 93 | 57.9 | 3 | 3.5 | 1 | 104 | 106 | 47.1 | 26.6 | 25.6 | 0.0149 | 0.0281 | 0.0067 | 0.012 | 0.0702 | 25.1 | 20.5 | 38.6 | 34.8 | 19.8
Cn1c(=O)n(-c2ccc(C(C)(C)C#N)cc2)c2c3cc(-c4cnc5ccccc5c4)ccc3ncc21 [NVP-BEZ235] | 98.6 | 102 | 85.2 | 40.1 | 40.3 | 95.4 | 98.5 | 77.2 | 40.6 | 28.7 | 99.7 | 110 | 98.4 | 71.8 | 30.1 | 101 | 99.9 | 98.9 | 37.9 | 20.7 | 98.4 | 102 | 93.9 | 57.5 | 38.1 | 0.156 | 0.209 | 1.19 | 0.585 | 0.552 | 13.4 | 13.7 | 7.5 | 11.7 | 8.8
O=[N+]([O-])c1cc(O)c(O)c([N+](=O)[O-])c1 [OR-486] | 93.2 | 103 | 103 | 97 | 94.3 | 102 | 100 | 95.2 | 94 | 99.5 | 101 | 98.3 | 98.3 | 93.6 | 96.7 | 98.2 | 102 | 96.5 | 103 | 98 | 97.6 | 99 | 102 | 100 | 97 | > 10 | > 10 | > 10 | > 10 | > 10 | 0 | 0 | 0 | 0 | 0
CCCCn1c(=O)c2[nH]c(C34CC5CC(CC3C5)C4)nc2n(CCCO)c1=O [PSB-36] | 96.5 | 102 | 98 | 101 | 91.9 | 99 | 93.4 | 98.7 | 91 | 80.4 | 105 | 95.4 | 103 | 99.3 | 97.3 | 98.5 | 98.9 | 88.6 | 89.1 | 86 | 99.3 | 93.5 | 98.1 | 84.9 | 100 | > 10 | > 10 | > 10 | > 10 | > 10 | 0 | 1.1 | 0 | 1.7 | 0
COc1cc2nc(N3CCN(C(=O)COc4c(OC)cccc4C(C)C)CC3)nc(N)c2cc1OC [Rec-15/2615] | 84.3 | 102 | 101 | 90.1 | 84.4 | 98.7 | 102 | 97.3 | 95.4 | 84.8 | 91.2 | 92.1 | 103 | 92 | 83.7 | 96.4 | 97.9 | 94.3 | 95.9 | 84.2 | 98.8 | 99.3 | 99.4 | 99.6 | 95.5 | > 10 | > 10 | > 10 | > 10 | > 10 | 1 | 0.4 | 1 | 0.1 | 0
N[C@@H](Cc1cc(CP(=O)(O)O)cc(-c2ccccc2Cl)c1)C(=O)O [SDZ-220-581] | 102 | 91.5 | 91 | 101 | 111 | 107 | 92.8 | 101 | 98.6 | 114 | 96 | 99.6 | 92.6 | 101 | 104 | 99.8 | 99.3 | 96.8 | 106 | 105 | 95.8 | 102 | 92.7 | 95.9 | 107 | > 10 | > 10 | > 10 | > 10 | > 10 | 0 | 0 | 0 | 0 | 0
